This note sets out measurements from US9624229B2, “Pyrimidine-2-amine compounds and their use as inhibitors of JAK kinases” (Rigel Pharmaceuticals, Inc., priority 2008, dated 2017).

SMILES strings stand for the structures.

Chain of Ba/F3 V617F cells (O60674 whole entry V617F): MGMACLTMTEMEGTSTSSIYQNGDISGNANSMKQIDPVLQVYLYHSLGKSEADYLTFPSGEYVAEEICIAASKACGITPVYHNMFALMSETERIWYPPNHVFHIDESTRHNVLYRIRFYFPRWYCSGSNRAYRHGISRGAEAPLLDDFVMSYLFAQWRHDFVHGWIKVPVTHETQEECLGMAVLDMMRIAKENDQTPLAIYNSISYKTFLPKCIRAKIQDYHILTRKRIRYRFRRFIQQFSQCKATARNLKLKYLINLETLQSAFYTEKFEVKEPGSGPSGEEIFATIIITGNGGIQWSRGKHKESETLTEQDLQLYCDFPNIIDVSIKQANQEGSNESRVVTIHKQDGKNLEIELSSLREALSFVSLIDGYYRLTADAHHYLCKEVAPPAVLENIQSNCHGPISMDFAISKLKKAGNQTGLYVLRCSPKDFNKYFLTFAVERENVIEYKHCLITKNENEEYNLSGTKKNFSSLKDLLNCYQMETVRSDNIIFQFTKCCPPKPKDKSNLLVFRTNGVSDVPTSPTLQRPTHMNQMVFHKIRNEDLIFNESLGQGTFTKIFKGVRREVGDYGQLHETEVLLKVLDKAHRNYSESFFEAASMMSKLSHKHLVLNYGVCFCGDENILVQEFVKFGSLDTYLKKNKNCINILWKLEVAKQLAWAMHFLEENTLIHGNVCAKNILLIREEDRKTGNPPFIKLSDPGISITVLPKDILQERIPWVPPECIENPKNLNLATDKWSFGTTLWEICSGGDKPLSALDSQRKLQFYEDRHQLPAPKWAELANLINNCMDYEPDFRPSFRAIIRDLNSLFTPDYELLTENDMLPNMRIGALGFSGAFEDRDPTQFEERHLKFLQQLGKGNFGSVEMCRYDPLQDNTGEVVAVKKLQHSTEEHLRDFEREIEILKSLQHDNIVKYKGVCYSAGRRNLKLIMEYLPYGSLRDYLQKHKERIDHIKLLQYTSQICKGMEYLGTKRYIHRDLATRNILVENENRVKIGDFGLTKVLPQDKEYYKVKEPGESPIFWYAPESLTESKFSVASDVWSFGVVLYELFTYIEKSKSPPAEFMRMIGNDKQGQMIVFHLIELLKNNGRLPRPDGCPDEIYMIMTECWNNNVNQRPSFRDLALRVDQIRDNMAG

The target in one assay is Ba/F3 V617F cells (Homo sapiens, UniProt O60674, V617F, cells depend on it). The assay can be described thus: Proliferation assay (Cell Titer-Glo, 72 h) utilizing Ba/F3 V617F cells. The format is cell-based, mouse. The settings on record: Ba/F3 V617F cells, proliferation, level of activity to inhibit JAK2, read-out: IC50 (the source's name). The method, then:
Ba/F3 V617F cells are maintained and plated in RPMI with 10% FBS. Plating density for these cells is 1×10^5 cells/mL.
The cells were resuspended in a corresponding medium at a required cell density (see above). 100μ of cell suspension was added to each well of a flat bottom 96 well white plate. The compound was serially diluted in DMSO from 5 mM in 3-fold dilutions, and then diluted 1:250 in the RPMI 1640 medium containing 5% FBS and pen/strep. 100 μL of resulting 2× compound solution was added per well in duplicate and the cells were allowed to proliferate for 72 hours at 37° C.
Proliferation was measured using Cell Titer-Glo. The substrate was thawed and allowed to come to ambient temperature. After removal of top 100 μL of medium from each well, 100 μL of the premixed Cell Titer-Glo reagent was added to each well. The plates were mixed on an orbital shaker for three minutes to induce lysis and incubated at ambient temperature for an additional five minutes to allow the signal to equilibrate. The Luminescence was read on the Wallac Plate Reader.
The results of the ability of the compounds of the invention to inhibit JAK2 activity, when tested in the above assay utilizing Ba/F3 V617F cells, are shown in the following Tables 2-3 wherein the level of activity (i.e., the IC50) for each compound is indicated in Tables 2-3. The compound numbers in Tables 2-3 refers to the compounds disclosed herein as being prepared by the methods disclosed herein: […]
Background: ATP-based viability assays read luminescence as a measure of living cells.
Take `CN1C[C@@H]2C[C@H]1CN2c1ccc(Nc2nccc(-c3cnc4c(c3)OC(C)(C)C(=O)N4)n2)cc1C#N` [compound 53, 4-(2,2-dimethyl-3-oxo-3,4-dihydro-2H-pyrido[3,2-b][1,4]oxazin-7-yl)-N-(3-cyano-4-((1S,4S)-5-methyl-2,5-diazabicyclo[2.2.1]heptan-2-yl)phenyl)pyrimidin-2-amine]: the GI50 was < 1 µM.

Take `Cc1cc(-c2ccnc(Nc3ccc(N4C[C@@H]5C[C@H]4CN5C)c(F)c3)n2)cnc1N1CCOCC1` [compound 59, 4-(5-methyl-6-(morpholin-4-yl)pyridin-3-yl)-N-(3-fluoro-4-((1S,4S)-5-methyl-2,5-diazabicyclo[2.2.1]heptan-2-yl)phenyl)pyrimidin-2-amine]: the GI50 is < 1 µM.

In the case of `Cc1cc(Nc2nccc(-c3cnc(N4CCOCC4)c(C)c3)n2)ccc1N1C[C@@H]2C[C@H]1CN2C` [compound 60, 4-(5-methyl-6-(morpholin-4-yl)pyridin-3-yl)-N-(3-methyl-4-((1S,4S)-5-methyl-2,5-diazabicyclo[2.2.1]heptan-2-yl)phenyl)pyrimidin-2-amine], the GI50 was < 1 µM.

`Cc1cc(Nc2ncc(C)c(-c3ccc(N4CCOCC4)nc3)n2)ccc1N1C[C@@H]2C[C@H]1CN2C` [compound 67, 5-methyl-4-(6-(morpholin-4-yl)pyridin-3-yl)-N-(3-methyl-4-((1S,4S)-5-methyl-2,5-diazabicyclo[2.2.1]heptan-2-yl)phenyl)pyrimidin-2-amine]: the GI50 was < 1 µM.

On to `Cc1cnc(Nc2ccc(N3C[C@@H]4C[C@H]3CN4C)c(F)c2)nc1-c1ccc(N2CCOCC2)nc1` [compound 68, 5-methyl-4-(6-(morpholin-4-yl)pyridin-3-yl)-N-(3-fluoro-4-((1S,4S)-5-methyl-2,5-diazabicyclo[2.2.1]heptan-2-yl)phenyl)pyrimidin-2-amine], for which the GI50 was < 1 µM.

As to `CN1C[C@@H]2C[C@H]1CN2c1ccc(Nc2nccc(-c3ccc(NCCN4CCOCC4)nc3)n2)cc1` [compound 69, 4-(6-(2-(morpholin-4-yl)ethyl)aminopyridin-3-yl)-N-(4-((1S,4S)-5-methyl-2,5-diazabicyclo[2.2.1]heptan-2-yl)phenyl)pyrimidin-2-amine], the GI50 is 1 to 10 µM.

As for `CN1C[C@@H]2C[C@H]1CN2c1ccc(Nc2nccc(-c3ccc(NCCN4CCOCC4)nc3)n2)cc1F` [compound 70, 4-(6-(2-(morpholin-4-yl)ethyl)aminopyridin-3-yl)-N-(3-fluoro-4-((1S,4S)-5-methyl-2,5-diazabicyclo[2.2.1]heptan-2-yl)phenyl)pyrimidin-2-amine], the GI50 is < 1 µM.

Turning to `Cc1cc(Nc2nccc(-c3cnc4c(c3)OC(C)(C)C(=O)N4)n2)ccc1N1C[C@H]2C[C@@H]1CN2C` [compound 71, 4-(2,2-dimethyl-3-oxo-3,4-dihydro-2H-pyrido[3,2-b][1,4]oxazin-7-yl)-N-(3-methyl-4-((1R,4R)-5-methyl-2,5-diazabicyclo[2.2.1]heptan-2-yl)phenyl)pyrimidin-2-amine], the GI50 is < 1 µM.

Consider `Cc1cc(Nc2nccc(-c3ccc(N4CCOCC4)nc3)n2)ccc1N1C[C@H]2C[C@@H]1CN2C` [compound 72, 4-(6-(morpholin-4-yl)pyridin-3-yl)-N-(3-methyl-4-((1R,4R)-5-methyl-2,5-diazabicyclo[2.2.1]heptan-2-yl)phenyl)pyrimidin-2-amine], for which the GI50 is < 1 µM.

On to `CN1C[C@H]2C[C@@H]1CN2c1ccc(Nc2nccc(-c3cnc4c(c3)OC(C)(C)C(=O)N4)n2)cc1F` [compound 73, 4-(2,2-dimethyl-3-oxo-3,4-dihydro-2H-pyrido[3,2-b][1,4]oxazin-7-yl)-N-(3-fluoro-4-((1R,4R)-5-methyl-2,5-diazabicyclo[2.2.1]heptan-2-yl)phenyl)pyrimidin-2-amine], for which the GI50 is < 1 µM.

As to `CN1C[C@H]2C[C@@H]1CN2c1ccc(Nc2nccc(-c3ccc(N4CCOCC4)nc3)n2)cc1F` [compound 74, 4-(6-(morpholin-4-yl)pyridin-3-yl)-N-(3-fluoro-4-((1R,4R)-5-methyl-2,5-diazabicyclo[2.2.1]heptan-2-yl)phenyl)pyrimidin-2-amine], the GI50 is < 1 µM.

With `Cc1cc(Nc2nccc(-c3ccc(N4CCOCC4)nc3)n2)ccc1N1CC2(C)CN(C)CC(C)(C1)C2` [compound 75, 4-(6-(morpholin-4-yl)pyridin-3-yl)-N-(3-methyl-4-(1,5,7-trimethyl-3,7-diazabicyclo[3.3.1]nonan-3-yl)phenyl)pyrimidin-2-amine], the GI50 is < 1 µM.

With `Cc1cc(Nc2nccc(-c3ccc(N(C)C)nc3)n2)ccc1N1CC2(C)CN(C)CC(C)(C1)C2` [compound 76, 4-(6-(dimethylamino)pyridin-3-yl)-N-(3-methyl-4-(1,5,7-trimethyl-3,7-diazabicyclo[3.3.1]nonan-3-yl)phenyl)pyrimidin-2-amine], the GI50 is < 1 µM.

On to `Cc1cc(Nc2nccc(-c3ccc(NC4CCCCC4)nc3)n2)ccc1N1CC2(C)CN(C)CC(C)(C1)C2` [compound 77, 4-(6-(cyclohexylamino)pyridin-3-yl)-N-(3-methyl-4-(1,5,7-trimethyl-3,7-diazabicyclo[3.3.1]nonan-3-yl)phenyl)pyrimidin-2-amine], for which the GI50 was < 1 µM.

Consider `Cc1cc(Nc2nccc(-c3ccc(NC4CCCCC4)nc3)n2)ccc1N1C[C@@H]2C[C@H]1CN2C` [compound 78, 4-(6-(cyclohexylamino)pyridin-3-yl)-N-(3-methyl-4-((1S,4S)-5-methyl-2,5-diazabicyclo[2.2.1]heptan-2-yl)phenyl)pyrimidin-2-amine], for which the GI50 is < 1 µM.

Staying with this assay, now noted: inhibition of JAK2 activity, proliferation of Ba/F3 V617F cells, read-out: IC50 (the source's name).
As to `CN(C)c1ccc(-c2ccnc(Nc3ccc(N4C[C@@H]5C[C@H]4CN5C)nc3)n2)cn1` [compound 54, 4-(6-(dimethylamino)pyridin-3-yl)-N-(6-((1S,4S)-5-methyl-2,5-diazabicyclo[2.2.1]heptan-2-yl)pyridin-3-yl)pyrimidin-2-amine], the GI50 was in the range of 1 to 10 µM.

As to `CC(=O)Nc1ccc(-c2ccnc(Nc3ccc(N4C[C@@H]5C[C@H]4CN5C)nc3)n2)cn1` [compound 55, 4-(6-(methylcarbonylamino)pyridin-3-yl)-N-(6-((1S,4S)-5-methyl-2,5-diazabicyclo[2.2.1]heptan-2-yl)pyridin-3-yl)pyrimidin-2-amine], the GI50 lay in the range of 1 to 10 µM.

For the molecule `CN(C)c1ccc(-c2ccnc(Nc3ccc(N4C[C@@H]5C[C@H]4CN5C)nc3)n2)cc1` [compound 56, 4-(4-(dimethylamino)phenyl)-N-(6-((1S,4S)-5-methyl-2,5-diazabicyclo[2.2.1]heptan-2-yl)pyridin-3-yl)pyrimidin-2-amine], the GI50 fell in the range of 1 to 10 µM.

Turning to `CC(=O)N1CCN(c2ccc(-c3ccnc(Nc4ccc(N5C[C@@H]6C[C@H]5CN6C)nc4)n3)cn2)CC1` [compound 57, 4-(6-(4-acetylpiperazin-1-yl)pyridin-3-yl)-N-(6-((1S,4S)-5-methyl-2,5-diazabicyclo[2.2.1]heptan-2-yl)pyridin-3-yl)pyrimidin-2-amine], the GI50 was in the range of 1 to 10 µM.

Regarding `Cc1cc(-c2ccnc(Nc3ccc(N4C[C@@H]5C[C@H]4CN5C)nc3)n2)cnc1N1CCOCC1` [compound 58, 4-(5-methyl-6-(morpholin-4-yl)pyridin-3-yl)-N-(6-((1S,4S)-5-methyl-2,5-diazabicyclo[2.2.1]heptan-2-yl)pyridin-3-yl)pyrimidin-2-amine], the GI50 is 1 to 10 µM.

As for `Cc1cc(Nc2nccc(-c3ccc(N(C)C)nc3)n2)cnc1N1C[C@@H]2C[C@H]1CN2C` [compound 61, 4-(6-(dimethylamino)pyridin-3-yl)-N-(5-methyl-6-((1S,4S)-5-methyl-2,5-diazabicyclo[2.2.1]heptan-2-yl)pyridin-3-yl)pyrimidin-2-amine], the GI50 is < 1 µM.

Consider `Cc1cc(Nc2nccc(-c3ccc(N(C)C)cc3)n2)cnc1N1C[C@@H]2C[C@H]1CN2C` [compound 62], for which the GI50 is 1 to 10 µM.

Regarding `CC(=O)N1CCN(c2ccc(-c3ccnc(Nc4cnc(N5C[C@@H]6C[C@H]5CN6C)c(C)c4)n3)cn2)CC1` [compound 63, 4-(6-(4-acetylpiperazin-1-yl)pyridin-3-yl)-N-(5-methyl-6-((1S,4S)-5-methyl-2,5-diazabicyclo[2.2.1]heptan-2-yl)pyridin-3-yl)pyrimidin-2-amine], the GI50 lay within 1 to 10 µM.

On to `Cc1cc(-c2ccnc(Nc3cnc(N4C[C@@H]5C[C@H]4CN5C)c(C)c3)n2)cnc1N1CCOCC1` [compound 64, 4-(5-methyl-6-(morpholin-4-yl)pyridin-3-yl)-N-(5-methyl-6-((1S,4S)-5-methyl-2,5-diazabicyclo[2.2.1]heptan-2-yl)pyridin-3-yl)pyrimidin-2-amine], for which the GI50 is < 1 µM.

In the case of `Cc1cc(Nc2nccc(-c3cnc4c(c3)OCCN4C)n2)cnc1N1C[C@@H]2C[C@H]1CN2C` [compound 65, 4-(4-methyl-3,4-dihydro-2H-pyrido[3,2-b][1,4]oxazin-7-yl)-N-(5-methyl-6-((1S,4S)-5-methyl-2,5-diazabicyclo[2.2.1]heptan-2-yl)pyridin-3-yl)pyrimidin-2-amine], the GI50 is < 1 µM.

Take `Cc1cc(Nc2nccc(-c3ccc(N4CCOCC4)nc3)n2)cnc1N1C[C@@H]2C[C@H]1CN2C` [compound 66, 4-(6-(morpholin-4-yl)pyridin-3-yl)-N-(5-methyl-6-((1S,4S)-5-methyl-2,5-diazabicyclo[2.2.1]heptan-2-yl)pyridin-3-yl)pyrimidin-2-amine]: the GI50 was in the range of 1 to 10 µM.
